These are literature values, as cited in US20070161542A1, “Ptb1b photoprobes” (priority 2003, published 2007).

This data set deals with PTP1B and TCPTP1B. As to conditions: reference (23); cited from earlier work.

Structures are written as SMILES. Non-standard residues stand in square brackets, D forms with d. Residues, ends and D or L forms follow the SMILES beside them. *: point of attachment. F2Pmp = N[C@@H](Cc1ccc(C(F)(F)P(=O)(O)O)cc1)C(=O)O; Bz = O=C(c1ccccc1)*

As for `NC(=O)[C@H](Cc1ccc(C(F)(F)P(=O)(O)O)cc1)NC(=O)[C@H](Cc1ccc(C(F)(F)P(=O)(O)O)cc1)NC(=O)[C@H](CCC(=O)O)NC(=O)c1ccccc1` [BzN-EJJ-AMIDE, N-benzoyl-L-glutamyl-[4-phosphono(difluoromethyl)]-L-phenylalanyl-[4-phosphono(difluoromethyl)]-L-phenylanalininamide] (Bz-Glu-[F2Pmp]-[F2Pmp]-NH2), the inhibitor character result is recorded as “selective, potent inhibitor”.
